# According to patent US20080070898A1, “Piperidine Derivative or Pharmaceutically Acceptable Salt Thereof” (priority 2004, published 2008):
# Where a name gives a salt, the structure may show the parent alone.
# Columns and labels:
# [1] = tested on: sodium channel; assay: [14C] guanidine uptake test (sodium channel inhibition test), veratridine-induced uptake into rat cerebral cortex primary neurons; assay type: cell-based; conditions: 100 μM veratridine, 25° C., 15 minutes, specific uptake defined by 1 mM mexiletine
# Protocol: (Sodium Channel Inhibition Test)
# The [^14C] guanidine uptake test was conducted by modifying the method of Bonisch et al. (British Journal of Pharmacology 108, 436-442, 1993). The [^14C] guanidine was used as a sodium tracer, and the inhibitory activity on uptake of [^14C] guanidine induced by veratridine as a sodium channel activator into rat cerebral cortex primary neurons was measured.
# a. Preparation of Rat Cerebral Cortex Primary Neuron Culture System.
# A pregnant rat (Wistar, female, pregnancy=19 days old) was anesthetized with diethyl ether and killed by bleeding with the cutting of the carotid artery. Fetuses were excised from the pregnant rat and sterilized with ethanol for disinfection. Then, from the fetuses was dissociated the cerebral cortex. The cerebral cortex was digested with papain and dispersed in a culture medium. Then, the dissociated neurons were placed in a 96-well white plate coated with a poly-L-lysine, at a density of […], and cultured for 2 days in a CO2 incubator (37° C., 5% CO2)
# b. Evaluation of Test Compounds
# Each well was washed once with an assay buffer (135 mM choline Cl, 5 mM KCl, 1 mM MgSO4, 5.5 mM glucose, 1 mg/mL BSA, 10 mM Hepes-Tris, pH 7.4). The assay buffer was added to each well and incubated at 25° C. for 10 minutes. Then, the assay buffer was replaced by a reaction solution (test compound, [^14C] guanidine and 100 μM veratridine) and incubated at 25° C. for 15 minutes. The reaction was terminated by three times washing with a cold-washing buffer (135 mM NaCl, 5 mM KCl, 1 mM MgSO4, 10 mM Hepes-Tris, pH 7.4). To each well was added 17 μL of 0.1 N NaOH; stirring was made; then, 100 μL of a scintillator was added; and the radioactivity of each well was measured using a liquid scintillator counter. In each test, the uptake amount of [^14C] guanidine inhibited by 1 mM of mexiletine was taken as the portion of the specific uptake via sodium channel. The activity of test compound on sodium channel is expressed by 50% inhibitory concentration (IC50) for the specific uptake.
# [2] = tested on: streptozotocin (STZ)-induced diabetic mice; assay: Analgesic action on diabetic neuropathy in streptozotocin-induced diabetic mice (tail pinch test); assay type: in vivo; conditions: orally 30 mg/kg, 45 minutes prior to measurement, Day 15 after STZ injection, ICR mice
# Protocol: (Analgesic Action on Diabetic Neuropathy in Streptozotocin-Induced Diabetic Mice)
# Representative compounds of Compound (I) of the present invention were assessed for the analgesic action on diabetic neuropathy in streptozotocin (STZ)-induced diabetic mice to confirm the effect on neuropathic pain. The assessment was performed by the method of Kamei et al. (Pharmacology Biochemistry & Behavior 39, 541-544, 1991) with some modifications.
# Male ICR mice of 4 weeks old were intraperitoneally injected with 200 mg/kg weight of STZ to prepare mice with diabetic neuropathy. The analgesic action was assessed by the tail pinch test. […] On Day 14 following the STZ injection, a pretest was carried out to determine the response latency before the administration of a test compound. Only the animals showing not longer than 3 seconds of the response latency in the pretest were used for the test compound assessment on the following day (Day 15 after STZ injection). In the test compound assessment, the response latency after the administration of a test compound was measured. The test compound was orally administered at a dose of 30 mg/kg, 45 minutes prior to the response latency measurement. The analgesic action of a test compound is expressed as prolongation of latency (in seconds) calculated by the formula: (response latency after administration of a test compound)−(response latency before administration of a test compound).
# [3] = tested on: L5/L6 spinal nerve ligation rats; assay: animal or person; conditions: Rattus norvegicus, po, read-out: ED50 (anti-allodynia action potency)
# Protocol: (Anti-Allodynia Effect in Rats with L5/L6 Spinal Nerve Ligation)
# The assessment was performed by the method of Kim and Chung (Pain 50, 355-363, 1992) with some modifications. Under pentobarbital anesthesia, male SD rats of 5 or 6 weeks old were given surgery to ligate both the left L5 and L6 lumbar spinal nerves tightly with silk threads. For the assessment of analgesic action, the von Frey hair test was adopted. That is, the animal's hindpaw was picked with hair and the lowest strength of hair for limb withdrawal response was designated as a response threshold (log gram) to mechanical stimulation. […] On the day before the assessment of a test compound, the response threshold before administration of a test compound was measured. The animals were divided into 4 to 5 groups so that differences in the mean values of response thresholds before administration among the groups and variation within groups become small. In the assessment of a test compound, the response threshold after administration of the test compound was measured. The test compound was orally given 30 minutes before measurement of the response threshold. The anti-allodynia action potency of a test compound is expressed as ED50. In the calculation of the ED50, the thresholds of ipsilateral and contralateral paws in the solvent group were designated as 0% and 100%, respectively.
SMILES,IC50 [1] [µM],"Increase in latent time (prolongation of latency, tail pinch) [2] [s]",ED50 [3] [mg/kg]
"O=C(CN1CCOCC1)N1CCC(/C=C/c2ccccc2Cl)CC1 [Example 1, 4-(2-{4-[(E)-2-(2-chlorophenyl)vinyl]piperidin-1-yl}-2-oxoethyl)morpholine oxalate]",27,,
"Cc1ccccc1/C=C/C1CCN(C(=O)CN2CCOCC2)CC1 [Example 3, 4-(2-{4-[(E)-2-(2-methylphenyl)vinyl]piperidin-1-yl}-2-oxoethyl)morpholine]",,2.3,
CC(C)Oc1ccccc1/C=C/C1CCN(C(=O)CN2CCOCC2)CC1 [Example 10],16,,
"CC(C)c1ccc(/C=C/C2CCN(C(=O)CN3CCOCC3)CC2)cc1 [Example 26, 4-(2-{4-[(E)-2-(4-isopropylphenyl)vinyl]piperidin-1-yl}-2-oxoethyl)morpholine]",25,2.3,
"O=C(CN1CCOCC1)N1CCC(/C=C/c2ccc(Cl)cc2)CC1 [Example 40, 4-(2-{4-[(E)-2-(4-chlorophenyl)vinyl]piperidin-1-yl}-2-oxoethyl)morpholine]",23,3.4,
O=C(CN1CCOCC1)N1CCC(/C=C\c2ccc(Cl)cc2)CC1 [Example 52],24,,
O=C(CN1CCCOCC1)N1CCC(/C=C/c2ccc(Cl)cc2)CC1 [Example 65],12,,
"O=C(CN1CCNCC1)N1CCC(/C=C/c2cccc(Cl)c2)CC1 [Example 68, 1-(2-{4-[(E)-2-(3-chlorophenyl)vinyl]piperidin-1-yl}-2-oxoethyl)piperazine di-hydrochloride]",25,,
O=C(C1CCCN1)N1CCC(/C=C/c2ccc(Cl)cc2)CC1 (centres unmarked) [Example 74],13,,
"O=C(CNC1CCCCC1)N1CCC(/C=C/c2ccc(Cl)cc2)CC1 [Example 76, N-2-{4-[(E)-2-(4-chlorophenyl)vinyl]piperidin-1-yl}-2-oxoethyl)cyclohexaneamine oxalate]",3.4,3.2,
"CN(CC(=O)N1CCC(/C=C/c2ccc(Cl)cc2)CC1)C1CCCCC1 [Example 78, N-2-{4-[(E)-2-(4-chlorophenyl)vinyl]piperidin-1-yl}-2-oxoethyl)-N-methylcyclohexaneamine oxalate]",3.1,2.4,
"Cc1cccc(C)c1OCC(C)N (centres unmarked) [mexiletine, reference compound]",~70,,~70
